Measured values from US20260055065A1, “PYRIDAZINONE COMPOUNDS WHICH MODULATE MUTANT PROTEINS FOR TREATING RESPIRATORY DISEASES” (The Hospital for Sick Children, priority 2022, published 2026).

Legend:
Assay type in all cases: cell-based
[1] = tested on: primary differentiated human bronchial epithelial cultures; assay: Bead tracking assay of mucociliary movement, primary bronchial epithelial cultures exposed to cigarette smoke extract
Procedure: Compound 11 was tested in an in-vitro model of COPD. In this model, primary differentiated human bronchial epithelial cultures were exposed to cigarette smoke extract (4,5). Exposure to cigarette smoke extract (CSE) led to mucostasis and slowed mucociliary movement (FIG. 1(A) and (B)). […] Changes in mucociliary movement were determined as in our previous publication (7), i.e., by tracking the speed of fluorescent beads added to the surface of the airway cultures. The relative rescue effect of Compound 11 compared favourably relative to the competitor, the FDA approved CFTR potentiator marketed as Ivacaftor (VX-770).
Mature bronchial epithelial cultures, seeded on 24-well transwell inserts, derived from non-smoker donors of variable ages were received from the University of Iowa and cultured at air-liquid interface (ALI) using UltraG medium. A total of 6 inserts per donor were cultured, and all inserts from a single donor were selected to receive chronic drug and toxin treatment. Ahead of chronic treatment, cultures were subject to mucomist to reduce the volume and viscosity of the mucous layer ahead of imaging. Cultures were first washed twice with 200 uL HBSS (Wisent) applied apically to the transwell, each wash for 10 minutes at 37 degrees and 5% CO2. Cells were then incubated with 10 μM N-acetyl-cysteine (source?) dissolved in HBSS (Wisent) for 30 minutes, followed by a final HBSS wash as described previously. The toxin treatment consisted of either cigarette smoke extract (CSE) prepared in 100% DMSO (University of Alabama at Birmingham), dissolved at a concentration of 2% (v/v) in UltraG medium, with an equivalent concentration of DMSO alone serving as a control. The chronic drug treatment was co-applied with the toxin treatment, which included either VX-770 (Vertex) or SK-POT, aka Compound 11 (both prepared in 100% DMSO) dissolved in UltraG medium at a final concentration of 1 μm. There were a total of 6 chronic treatments, with each of the 6 inserts per donor receiving a different chronic treatment. Bronchial epithelia were incubated with the chronic treatment, applied apically, for 24 hours at 37 degrees C. and 5% CO2. After 24 hours, green fluorescent microspheres (brand?) dissolved in HBSS at a concentration of 0.05% (v/v) were applied apically; cultures were incubated with the microspheres for 45 minutes. The toxin and potentiator treatments were carried forth into the microsphere solution.
Inserts were then imaged at room temperature by epifluorescence microscopy (Zeiss or Olympus). The basic replicate of the assay consists of a 5-second video captured in the green channel and 40-60 frames per second; Z-position was adjusted ahead of each video to ensure beads in the airway surface liquid stratum immediately above the cilia were being captured. 5 videos were captured per insert/conditions, representing the centre and 4 corners of the insert. 2 sets of 5 videos were captured per insert/condition: one at baseline, and one 20 minutes following CFTR stimulation by forskolin at a concentration of 10 μM. Inserts were incubated at room temperature after forskolin addition.
Videos were captured using Volocity software and exported as one TIF file per frame. Frames were then re-compiled into complete videos using Arivis 4D software. Using an algorithm as previously described in Wu et al. 2017, microspheres were highlighted by adjusting two parameters: fluorescence intensity and diameter. […]

[2] = molecular target: Wt-CFTR (Homo sapiens, UniProt P13569); assay: Calu-3 CSE experiments, FLiPR assay of CFTR channel activity; design: this airway epithelial cell line endogenously expresses this channel; endogenous in cells; host or cells: Calu-3
Procedure: Addition of CFTR-inhibitor indicated with grey arrow. Superimposed, we show the effect of acute co-application of VX-770 (open squares) or SK-POT (open triangles) with forskolin. […] Only SK-POT rescued CFTR channel function in the presence of cigarette smoke extract.
Calu-3 cells were cultured using EMEM (Wisent) supplemented with FBS at 20% (v/v) and 1× Penicillin/Streptomycin (Wisent). Calu-3 cells were seeded on clear-bottom, black-walled 96 well plates (Costar, Corning) at a density of 10,000 cells/well and cultured for 2 days post-confluence. Cells then received the chronic treatment of toxin and potentiator. The toxin treatment consisted of either cigarette smoke extract (CSE) prepared in 100% DMSO (University of Alabama at Birmingham), dissolved at a concentration of 2% (v/v) in Calu-3 medium, with an equivalent concentration of DMSO alone serving as the toxin control. The chronic drug treatment was co-applied with the toxin, which included either VX-770 or Compound 11 (both prepared in 100% DMSO) dissolved in Calu-3 medium at a final concentration of 1 μm. VX-770 (Vertex) and Compound 11 solutions were prepared from 1 mM stocks. The control for the drug treatment was the vehicle, DMSO at an equivalent volume. Combining the two toxin treatments and three drug treatments, a total of six treatments were applied chronically to 4 wells per condition, for a total of 24 wells receiving chronic treatment.
Cells were cultured for an additional 24 hours after chronic treatment application, after which cells were incubated with FLiPR assay buffer. The FLiPR assay buffer consisted of blue FLiPR dye (Molecular Devices) dissolved at a concentration of 0.5 mg/mL in chloride-free buffer (150 mM NMDG, 150 mM gluconolactone, 3 mM potassium gluconate, 300 mOsm and pH 7.38). Buffer was incubated with cells at 37 degrees and 5% CO2 for 35 minutes. CFTR function was assessed by measuring changes in fluorescence activity after acute CFTR channel activation by addition of cAMP agonist forskolin dissolved in chloride-free buffer to a final concentration 1 μm, using the SpectraMax i3x multimodal plate reader. Fluorescence readings (excitation 530 nm; emission 560 nm) for each well were taken at 30-second intervals for 5 minutes (baseline) or 10 minutes (activation). CFTR activity was then terminated by addition of CFTR-inhibitor 172 dissolved in chloride-free buffer to a concentration of 10 μm, to further verify the specificity of the response to CFTR activity. Fluorescence changes were recorded at 30-second intervals for another 10 minutes. In analysis, all fluorescence values were normalized per well to the final reading prior to the addition of forskolin and expressed as a percentage of this reading.

[3] = molecular target: T1, F508del-CFTR (Homo sapiens, UniProt P13569, DEL508-508); assay: Dose response, potentiation of forskolin-activated F508del-CFTR chloride channel activity in CFBE41o- cells (fluorescence membrane potential assay); details: low temperature (27 degrees Celsius) correction, read-out: potency in potentiating cyclic AMP dependent F508del-CFTR chloride channel activity
T1 construct: F508del-CFTR was endogenously expressed in CFBE41o^− cells; endogenous in cells; host or cells: CFBE41o-
Procedure: In these studies, F508del-CFTR was endogenously expressed in CFBE41o^− cells and it's trafficking defect corrected by low temperature (27 degrees Celsius) incubation. The fold increase in cyclic AMP dependent F508del-CFTR mediated chloride channel activity induced by potentiator treatment was determined using the fluorescence-based, membrane potential difference assay previously described.

[4] = molecular target: T2, wild-type human CFTR (Homo sapiens, UniProt P13569); assay: Cell-attached patch clamp of CFTR channel potentiation in HEK-293 cells; details: one active channel with forskolin alone
T2 construct: host or cells: HEK-293
T2 sequence (P13569 whole entry): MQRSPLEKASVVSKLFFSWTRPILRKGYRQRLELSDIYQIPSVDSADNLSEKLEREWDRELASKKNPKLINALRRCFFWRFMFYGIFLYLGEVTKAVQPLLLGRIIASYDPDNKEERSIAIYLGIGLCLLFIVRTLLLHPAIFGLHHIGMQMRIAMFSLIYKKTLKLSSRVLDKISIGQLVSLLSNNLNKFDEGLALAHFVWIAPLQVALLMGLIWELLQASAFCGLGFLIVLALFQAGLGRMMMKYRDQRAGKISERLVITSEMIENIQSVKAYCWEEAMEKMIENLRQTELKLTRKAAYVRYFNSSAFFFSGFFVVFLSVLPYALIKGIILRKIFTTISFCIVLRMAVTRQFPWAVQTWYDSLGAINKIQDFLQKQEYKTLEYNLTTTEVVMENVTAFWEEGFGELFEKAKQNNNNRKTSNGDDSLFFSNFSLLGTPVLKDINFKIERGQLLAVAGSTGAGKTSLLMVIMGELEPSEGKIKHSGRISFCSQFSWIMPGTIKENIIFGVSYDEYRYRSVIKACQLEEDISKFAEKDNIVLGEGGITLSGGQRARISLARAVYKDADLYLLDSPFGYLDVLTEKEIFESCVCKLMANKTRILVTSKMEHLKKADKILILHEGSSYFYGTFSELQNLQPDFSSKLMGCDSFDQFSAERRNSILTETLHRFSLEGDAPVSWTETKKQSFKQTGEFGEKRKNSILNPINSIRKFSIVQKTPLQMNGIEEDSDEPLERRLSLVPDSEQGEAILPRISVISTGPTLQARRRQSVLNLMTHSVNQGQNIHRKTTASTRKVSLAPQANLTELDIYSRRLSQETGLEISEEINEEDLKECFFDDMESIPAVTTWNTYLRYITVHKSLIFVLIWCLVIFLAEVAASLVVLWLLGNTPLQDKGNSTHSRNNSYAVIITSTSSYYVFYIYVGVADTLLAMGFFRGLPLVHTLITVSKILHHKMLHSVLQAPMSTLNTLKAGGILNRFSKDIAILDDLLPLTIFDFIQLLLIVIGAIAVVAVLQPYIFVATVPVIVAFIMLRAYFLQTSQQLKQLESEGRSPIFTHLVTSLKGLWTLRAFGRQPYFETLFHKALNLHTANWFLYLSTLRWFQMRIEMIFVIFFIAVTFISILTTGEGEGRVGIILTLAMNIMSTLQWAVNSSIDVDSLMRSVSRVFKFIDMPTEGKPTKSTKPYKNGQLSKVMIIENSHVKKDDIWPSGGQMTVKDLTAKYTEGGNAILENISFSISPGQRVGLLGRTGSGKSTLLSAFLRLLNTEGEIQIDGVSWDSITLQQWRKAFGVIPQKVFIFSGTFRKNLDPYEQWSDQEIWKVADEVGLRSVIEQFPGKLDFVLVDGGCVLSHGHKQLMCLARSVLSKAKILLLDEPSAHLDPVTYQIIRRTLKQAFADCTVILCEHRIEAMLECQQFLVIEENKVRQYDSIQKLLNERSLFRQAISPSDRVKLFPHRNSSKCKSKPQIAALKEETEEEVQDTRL
Procedure: HEK-293 cells stably expressing wild-type human CFTR in patch clamp studies of single channel activity were used. […] CFTR Cl^− channels were recorded in cell-attached membrane patches using an Axopatch 200A patch clamp amplifier and pCLAMP software (both from Molecular Devices, Sunnyvale, CA). The pipette and bath (extracellular) solutions contained 140 mm N-methyl-d-glucamine, 140 mm aspartic acid, 5 mm CaCl2, 2 mm MgSO4, and 10 mm TES, adjusted to pH 7.3 with Tris ([Cl^−]: 10 mM). The bath was maintained at room temperature.
In order to activate Wt-CFTR channels, 10 uM forskolin was added to the bath. […] To determine channel number, we used the maximum number of simultaneous channel openings observed during the experimental procedure. Single channel recordings were filtered and digitized data as described previously. To measure single-channel current amplitude, Gaussian distributions were fitted to current amplitude histograms. To measure Po, lists of open and closed times were created using a half-amplitude crossing criterion for event detection, and dwell time histograms were constructed and fitted. For the purpose of illustration, single-channel records were filtered at 500 Hz.

Wt-CFTR, sequence (P13569 whole entry): as above
T1 sequence (P13569 with tags, fused parts or gaps DEL508-508): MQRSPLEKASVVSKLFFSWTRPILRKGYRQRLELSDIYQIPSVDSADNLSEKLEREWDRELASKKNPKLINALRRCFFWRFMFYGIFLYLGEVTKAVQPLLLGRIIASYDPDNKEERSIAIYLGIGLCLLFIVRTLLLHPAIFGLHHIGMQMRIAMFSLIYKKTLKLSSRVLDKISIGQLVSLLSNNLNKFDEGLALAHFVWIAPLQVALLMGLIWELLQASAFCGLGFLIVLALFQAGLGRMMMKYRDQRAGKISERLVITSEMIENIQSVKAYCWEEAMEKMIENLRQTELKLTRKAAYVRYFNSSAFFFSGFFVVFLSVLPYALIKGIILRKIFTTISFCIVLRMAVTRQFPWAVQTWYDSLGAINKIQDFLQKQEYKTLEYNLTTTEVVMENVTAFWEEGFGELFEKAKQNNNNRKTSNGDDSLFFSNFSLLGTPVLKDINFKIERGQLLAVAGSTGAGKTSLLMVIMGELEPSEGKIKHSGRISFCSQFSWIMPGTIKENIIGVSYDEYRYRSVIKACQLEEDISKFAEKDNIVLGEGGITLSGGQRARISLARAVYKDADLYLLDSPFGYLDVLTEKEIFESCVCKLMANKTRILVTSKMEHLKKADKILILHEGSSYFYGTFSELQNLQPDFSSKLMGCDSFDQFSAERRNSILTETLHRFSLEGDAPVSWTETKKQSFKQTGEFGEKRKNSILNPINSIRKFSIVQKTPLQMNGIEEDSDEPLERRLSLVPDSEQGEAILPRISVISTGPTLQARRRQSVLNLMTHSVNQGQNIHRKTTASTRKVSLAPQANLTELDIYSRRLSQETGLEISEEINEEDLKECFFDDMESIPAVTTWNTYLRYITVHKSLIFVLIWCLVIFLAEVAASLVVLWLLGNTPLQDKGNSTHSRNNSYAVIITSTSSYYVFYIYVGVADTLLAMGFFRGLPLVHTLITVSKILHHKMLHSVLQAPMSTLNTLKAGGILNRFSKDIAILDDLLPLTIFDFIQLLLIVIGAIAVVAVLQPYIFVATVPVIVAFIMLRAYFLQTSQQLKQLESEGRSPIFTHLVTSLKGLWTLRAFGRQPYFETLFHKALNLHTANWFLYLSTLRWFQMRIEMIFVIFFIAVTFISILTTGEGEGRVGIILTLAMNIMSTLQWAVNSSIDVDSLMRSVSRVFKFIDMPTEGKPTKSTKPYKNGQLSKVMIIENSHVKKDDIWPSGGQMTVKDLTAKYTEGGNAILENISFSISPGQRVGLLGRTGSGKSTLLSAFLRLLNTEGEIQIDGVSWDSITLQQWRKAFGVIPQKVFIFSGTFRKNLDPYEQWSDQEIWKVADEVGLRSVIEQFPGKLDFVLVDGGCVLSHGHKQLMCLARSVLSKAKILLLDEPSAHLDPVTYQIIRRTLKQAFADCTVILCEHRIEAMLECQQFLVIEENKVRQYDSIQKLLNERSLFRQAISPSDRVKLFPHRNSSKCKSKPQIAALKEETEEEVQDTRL

Row | EC90 ([2]; Calu-3, CFTR channel potentiation, read-out: approximate EC90) | EC50 [3] | Compound | mucostasis / bead velocity in CSE-treated cultures ([1]; CSE 2%, compound 1 μM for 24 hours, forskolin 10 μM) | bead velocity under control conditions ([1]; no CSE, compound added with vehicle for 24 hours) | forskolin-activated CFTR channel activity after CSE exposure ([2]; Calu-3, CSE 2%, compounds 1 uM) | number of active channels [4]
1 | ~1000 nM | 32 nM | CC(C)(C)c1cc(C(C)(C)C)c(NC(=O)c2c[nH]c3ccccc3c2=O)cc1O [VX-770, reference compound] | a significant increase in the forskolin induced response in CSE-treated cultures after VX-770 addition was not observed | Neither VX-770 nor Compound 11 had any impact on bead velocity | only (SK-POT) treatment led to a significant increase | 
2 |  |  | CFTRinh-172 |  |  |  | significant decrease in the number of active channels
